Measurements published in patent US9233184B2, “Adhesive preparation” (HISAMITSU PHARMACEUTICAL CO., INC., priority 2006, dated 2016).
Like-named read-outs stand apart in the source and are kept apart here.

What was measured:
[1] = human, in vivo
Experimental: (§1) Blood was collected over time. […] Methyl salicylate and 1-menthol are contained in large amounts in daily necessities. Therefore, the use of such daily necessities was avoided before and during the application.
(§2) The plasma concentrations of the methyl salicylate, its metabolite salicylic acid, and the 1-menthol were separately measured. The measurement was performed by liquid chromatography-mass spectrometry for the salicylic acid and by gas chromatography-mass spectrometry for the methyl salicylate and the 1-menthol. Each of the measurement methods was validated beforehand to confirm measurement reliability. Values obtained by subtracting an endogenous concentration (measurement value on 0 hour) before the application from an actual measurement value were used as plasma concentrations during the application. The Cmax and AUC0-24 were calculated according to the standard methods.
A mean was an average value from the seven individuals to be tested. This measurement of the plasma concentrations was performed according to the guideline of FDA (U.S. Food and Drug Administration) (Guidance for Industry=Bioanalytical Method Validation).

clinical = details: human, in vivo; for Cmax: plasma Cmax
Experimental: as §1, §2
This measurement of the plasma concentrations was performed according to the guideline of FDA (U.S. Food and Drug Administration) (Guidance for Industry=Bioanalytical Method Validation).

[2] = cited from earlier work

SMILES | time within which maximum plasma concentration (Cmax) is achieved [1] [h] | AUC(0-t) (clinical; plasma AUC0-24, Mean ± S.D.) [ng·h/mL] | AUC(0-t) (clinical; plasma AUC0-24, Maximum value) [ng·h/mL] | AUC(0-t) (clinical; plasma AUC0-24, Minimum value) [ng·h/mL] | Cmax (clinical; Maximum value) [ng/mL] | Cmax (clinical; Mean ± S.D.) [ng/mL] | Cmax (clinical; Minimum value) [ng/mL] | plasma concentration of methyl salicylate ([2]; eight pieces of adhesive preparation with 74.88 mg/piece of methyl salicylate applied to a human) | plasma concentration of methyl salicylate ([2]; two pieces of adhesive preparation with 74.88 mg/piece of methyl salicylate applied to a human)
CC1CCC(C(C)C)C(O)C1 (stereo not drawn) [Example 1-menthol, 1-menthol] | ≤ 8 | 80.6 | – | – | – | – | – | – | –
COC(=O)c1ccccc1O [Methyl salicylate] | ≤ 6 | 30.1 | 139 | 3.7 | 109 | 21.1 | 2.5 | approximately 30 ng/mL | hardly rose
O=C(O)c1ccccc1O [Salicylic acid] | ≤ 12 | 8850 | 24700 | 3460 | 4100 | 1290 | 531 | – | –
